# After the bases stand the sugars from the 5' end (letter, count) and the backbone: PS all phosphorothioate, else s phosphorothioate and o phosphodiester by linkage. Methylation of C is not given here. e = 2'-O-(2-methoxyethyl) (MOE); k = constrained ethyl (cEt); d = 2'-deoxy (DNA); m = 2'-O-methyl
# Target: HSD17B13
# Conditions: ASO, HepaRG
Sequence,target mRNA inhibition (1 µM) [%],further results
"GATATTCTGTGGCATG (sugars k3 d10 k3, PS)",46,–
"AACCAATATGCTCTGT (sugars k3 d10 k3, PS)",51,–
"CACCTGATTTAGAGAG (sugars k3 d10 k3, PS)",11,–
"TCCAAGTAGGAGTAGA (sugars k3 d10 k3, PS)",24,–
"TACCACATACGCATGC (sugars k3 d10 k3, PS)",33,–
"CAGCATTGATTCGAAA (sugars kkdddddddddkekek, PS)",58,–
"TCACTATATTGCATTC (sugars k3 d10 k3, PS)",35,–
"CAGAGACATGAGGTTT (sugars kkdddddddddkekek, PS)",61,–
"AGAGTTGCACCGTTTT (sugars kkdddddddddkekek, PS)",80,target mRNA inhibition (0.02 µM): 6%; target mRNA inhibition (0.078 µM): 18%; target mRNA inhibition (0.313 µM): 38%; target mRNA inhibition (1.25 µM): 63%; target mRNA inhibition (5 µM): 81%
"AGCCTTAGAGTGAATC (sugars k3 d10 k3, PS)",74,target mRNA inhibition (0.02 µM): 35%; target mRNA inhibition (0.078 µM): 54%; target mRNA inhibition (0.313 µM): 84%; target mRNA inhibition (1.25 µM): 94%; target mRNA inhibition (5 µM): 89%
"ATCTCTGGGACCAAGG (sugars k3 d1 m1 d8 k3, PS)",52,–
"CTCCAAGTAGGAGTAG (sugars k3 d10 k3, PS)",5,–
"ATTGCATAAGAGCCAA (sugars k3 d10 k3, PS)",67,–
"CTCCAATACAGGCCAT (sugars k3 d10 k3, PS)",20,–
"CCCTGTGTAAATAAGT (sugars k3 d10 k3, PS)",41,–
"AGCAAAGTTTGGGCAG (sugars k3 d10 k3, PS)",44,–
"ATGTTTATGTAAGCAC (sugars kkdddddddddkekek, PS)",61,–
"TGTTGATATTCTGTGG (sugars k3 d1 m1 d8 k3, PS)",48,–
"CATAUGTGAAGAGCTG (sugars k3 d1 m1 d8 k3, PS)",39,–
"TTTATTATGAGGATCT (sugars k3 d10 k3, PS)",43,–
"TTAATGCCACCCTACC (sugars k3 d10 k3, PS)",19,–

Sequence,target mRNA inhibition (1 µM) [%],further results
"CAGAAGGATTTCTAGG (sugars k3 d10 k3, PS)",43,–
"TAAACCTTCCCTGTGT (sugars k3 d9 k3 e1, PS)",23,–
"TAAGATACCCAGGTTG (sugars k3 d9 k3 e1, PS)",58,–
"ATAGAGTTGCACCGTT (sugars k3 d1 m1 d8 k3, PS)",59,–
"AGCATTATTCACCACG (sugars k3 d10 k3, PS)",53,–
"CTAGGATGTTGACCTC (sugars k3 d10 k3, PS)",0,–
"TCGGUCACCTTTCATA (sugars k3 d1 m1 d8 k3, PS)",21,–
"TGCATAAGAGATGAGT (sugars k3 d10 k3, PS)",19,–
"CTGAAATTGATACACC (sugars k3 d10 k3, PS)",67,–
"ATTAAGATGTCCAGGC (sugars k3 d10 k3, PS)",31,–
"AAGAGTCAGTATCCTC (sugars k3 d10 k3, PS)",63,–
"GAGTTATACAGAAGAC (sugars k3 d10 k3, PS)",61,–
"TGGAATGCTACTTGAA (sugars k3 d9 k3 e1, PS)",57,–
"ATCCTATATACATCCA (sugars k3 d10 k3, PS)",76,target mRNA inhibition (0.02 µM): 3%; target mRNA inhibition (0.078 µM): 8%; target mRNA inhibition (0.313 µM): 36%; target mRNA inhibition (1.25 µM): 72%; target mRNA inhibition (5 µM): 92%
"GCGATAGATCTCTTCT (sugars k3 d10 k3, PS)",24,–
"TTATAACTACAAGAGG (sugars k3 d10 k3, PS)",68,target mRNA inhibition (0.02 µM): 1%; target mRNA inhibition (0.078 µM): 25%; target mRNA inhibition (0.313 µM): 26%; target mRNA inhibition (1.25 µM): 60%; target mRNA inhibition (5 µM): 82%
"AATCACAAGTAAGGTA (sugars k3 d1 m1 d8 k3, PS)",31,–
"GAAAAGCCTGACTCAC (sugars k3 d10 k3, PS)",48,–
"TTCTATCAACCTGCAC (sugars k3 d10 k3, PS)",62,–
"TGTTGATATTCTGTGG (sugars k3 d9 k3 e1, PS)",64,–
"TATGTAATAGCCAGTA (sugars kkdddddddddkekek, PS)",78,target mRNA inhibition (0.02 µM): 9%; target mRNA inhibition (0.078 µM): 33%; target mRNA inhibition (0.313 µM): 58%; target mRNA inhibition (1.25 µM): 67%; target mRNA inhibition (5 µM): 85%
